Among the test systems are TK-10 renal; SNB-75 CNS; SF-268 CNS; UACC-62 melanoma; CAKI-1 renal; SK-OV-3 ovarian; NCI-H23 lung; SK-MEL-5 melanoma; OVCAR-8 ovarian; NCI/ADR-RES ovarian.
Assay in all cases: DTP human tumour cell line panel, 48 h

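Five concentrations, 48 hours, 96-well plates. Here, GI50 denotes the concentration required for 50% inhibition of growth. The concentration for full growth arrest is given as TGI.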

Regarding `O=c1c(Oc2ccc(F)cc2F)cc2cnc(NC3CCOCC3)nc2n1C1CC1`, the GI50 was 19.8 µM in the assay with TK-10 renal; above 25 µM in the assay with SNB-75 CNS; above 25 µM in the assay on SF-268 CNS; above 25 µM in the assay on UACC-62 melanoma; above 25 µM with CAKI-1 renal; above 25 µM in the assay on SK-OV-3 ovarian. Further, the GI50 in the assay on NCI-H23 lung, in the assay on SK-MEL-5 melanoma, with OVCAR-8 ovarian and in the assay on NCI/ADR-RES ovarian was above 25 µM in each case. Also, the total growth inhibition concentration (TGI) in the assay on TK-10 renal, in the assay with SNB-75 CNS, in the assay with SF-268 CNS, in the assay on UACC-62 melanoma, with CAKI-1 renal and with SK-OV-3 ovarian was above 25 µM in each case. Also, the TGI with NCI-H23 lung, with SK-MEL-5 melanoma, with OVCAR-8 ovarian and in the assay with NCI/ADR-RES ovarian was above 25 µM throughout.

As for `COc1cc2c3c(n(CCCN)c(=O)c2cc1OC)-c1ccc(N)cc1C3=O`, the GI50 in the assay with TK-10 renal was 17.9 µM; in the assay with SNB-75 CNS, 1.75 µM; in the assay on SF-268 CNS, 1.64 µM; in the assay with UACC-62 melanoma, 1.08 µM; in the assay with CAKI-1 renal it was 30.9 µM; with SK-OV-3 ovarian, 2.52 µM. For the same molecule, the GI50 was 1.62 µM in the assay on NCI-H23 lung, 0.902 µM in the assay on SK-MEL-5 melanoma, 2.86 µM with OVCAR-8 ovarian and above 100 µM in the assay with NCI/ADR-RES ovarian. Moreover, the TGI in the assay on TK-10 renal was 80.6 µM; in the assay on SNB-75 CNS it was 12.3 µM; in the assay on SF-268 CNS, 31.6 µM; in the assay with UACC-62 melanoma, 10.7 µM; in the assay with CAKI-1 renal it was above 82.3 µM; in the assay on SK-OV-3 ovarian, 17.9 µM. The TGI is 9.75 µM in the assay on NCI-H23 lung, 2.88 µM with SK-MEL-5 melanoma, 59.1 µM with OVCAR-8 ovarian and above 100 µM in the assay with NCI/ADR-RES ovarian.

On to `OCc1ccc(N2CCc3ccc(F)cc3C2)cc1Cl`, for which the GI50 was 0.0178 µM in the assay on TK-10 renal; 11.5 µM with SNB-75 CNS; 13.1 µM in the assay with SF-268 CNS; 0.0405 µM with UACC-62 melanoma; 1.01 µM with CAKI-1 renal; 2.71 µM in the assay with SK-OV-3 ovarian. Also, the GI50 was 1.86 µM in the assay on NCI-H23 lung, 0.856 µM in the assay with SK-MEL-5 melanoma, 7.05 µM in the assay on OVCAR-8 ovarian and 5.22 µM in the assay on NCI/ADR-RES ovarian. Further, the TGI is 0.0693 µM with TK-10 renal; 25.3 µM with SNB-75 CNS; 27 µM with SF-268 CNS; 0.248 µM in the assay on UACC-62 melanoma; 9.62 µM in the assay on CAKI-1 renal; 13.6 µM in the assay on SK-OV-3 ovarian. Also, the TGI in the assay on NCI-H23 lung came out at 21 µM; with SK-MEL-5 melanoma it was 20 µM; in the assay with OVCAR-8 ovarian, 20.7 µM; in the assay on NCI/ADR-RES ovarian, 25.6 µM.

For the molecule `OC[C@H]1C[C@](O)(c2ccc(F)cc2)[C@@H](c2ccc(F)cc2)O1`, the GI50 in the assay on TK-10 renal, with SNB-75 CNS, in the assay with SF-268 CNS, with UACC-62 melanoma, with CAKI-1 renal and with SK-OV-3 ovarian was above 100 µM in each case. Besides, the GI50 with NCI-H23 lung, in the assay with SK-MEL-5 melanoma, in the assay with OVCAR-8 ovarian and in the assay on NCI/ADR-RES ovarian was above 100 µM throughout. The TGI with TK-10 renal, in the assay on SNB-75 CNS, in the assay with SF-268 CNS, with UACC-62 melanoma, with CAKI-1 renal and with SK-OV-3 ovarian was above 100 µM each time. The concentration for total growth inhibition (TGI) in the assay with NCI-H23 lung, in the assay with SK-MEL-5 melanoma, in the assay with OVCAR-8 ovarian and in the assay on NCI/ADR-RES ovarian was above 100 µM in each case.

Take `CNCc1cccc2c1OCCOCCOCCNS(=O)(=O)c1ccc(cc1)-c1cnc(N)c(n1)C(=O)N2`: the GI50 in the assay on TK-10 renal is 1.98 µM; in the assay on SNB-75 CNS, 0.353 µM; with SF-268 CNS it was 1.04 µM; in the assay on UACC-62 melanoma it was 1.61 µM; in the assay with CAKI-1 renal, 0.46 µM; in the assay with SK-OV-3 ovarian, 0.543 µM. Further, the GI50 with NCI-H23 lung was 2.22 µM; with SK-MEL-5 melanoma, 1.69 µM; with OVCAR-8 ovarian, 1.61 µM; in the assay with NCI/ADR-RES ovarian it was 84.3 µM. Further, the TGI worked out at 8.49 µM with TK-10 renal; 5.26 µM in the assay on SNB-75 CNS; 3.31 µM with SF-268 CNS; 2.99 µM with UACC-62 melanoma; 1.86 µM in the assay on CAKI-1 renal; 8.01 µM in the assay with SK-OV-3 ovarian. Also, the TGI in the assay on NCI-H23 lung was 7.72 µM; in the assay with SK-MEL-5 melanoma, 3.29 µM; with OVCAR-8 ovarian, 10.4 µM; in the assay with NCI/ADR-RES ovarian, above 100 µM.

On to `O=[N+]([O-])c1ccc(/C=C(/c2ccc([N+](=O)[O-])o2)S(=O)(=O)c2ccccc2)cc1`, for which the TGI is above 100 µM in the assay with TK-10 renal; above 100 µM in the assay with SNB-75 CNS; above 100 µM in the assay on SF-268 CNS; 75.7 µM with UACC-62 melanoma; above 100 µM with CAKI-1 renal; above 100 µM in the assay with SK-OV-3 ovarian. Besides, the TGI in the assay with NCI-H23 lung was above 100 µM; in the assay with SK-MEL-5 melanoma, 34.3 µM; in the assay on OVCAR-8 ovarian it was above 100 µM; with NCI/ADR-RES ovarian, above 100 µM.

For the molecule `COc1ccc(Cn2c(Br)c3c(c2-c2cc(OC)c(OC)c(OC)c2)CCc2sc(N)nc2-3)cc1`, the GI50 in the assay with TK-10 renal is 1.1 µM; in the assay on SNB-75 CNS, 0.688 µM; with SF-268 CNS it was 1.73 µM; with UACC-62 melanoma, 0.598 µM; in the assay on CAKI-1 renal, 0.765 µM; in the assay on SK-OV-3 ovarian it was 1.2 µM. The GI50 with NCI-H23 lung is 2.69 µM; in the assay on SK-MEL-5 melanoma, 1.6 µM; with OVCAR-8 ovarian, 1.32 µM; in the assay with NCI/ADR-RES ovarian, 0.866 µM. The TGI was 6.96 µM in the assay with TK-10 renal; 31.8 µM with SNB-75 CNS; 20.8 µM in the assay with SF-268 CNS; 15 µM in the assay on UACC-62 melanoma; above 28.2 µM in the assay with CAKI-1 renal; 8.04 µM with SK-OV-3 ovarian. The total growth inhibition concentration (TGI) in the assay on NCI-H23 lung was above 58.3 µM; in the assay with SK-MEL-5 melanoma, 13.5 µM; with OVCAR-8 ovarian, 16.9 µM; in the assay on NCI/ADR-RES ovarian it was 36.3 µM.

On to `CN(c1ccccc1)c1c2ccccc2nc2[nH]c3ccccc3c12`, for which the GI50 with TK-10 renal was 1.26 µM; with SNB-75 CNS, 3.04 µM; in the assay on SF-268 CNS it was 3.41 µM; with UACC-62 melanoma, 1.5 µM; in the assay on CAKI-1 renal it was 1.92 µM; in the assay on SK-OV-3 ovarian it was 3.75 µM. In addition, the GI50 in the assay on NCI-H23 lung was 6.4 µM; in the assay on SK-MEL-5 melanoma, 1.62 µM; in the assay on OVCAR-8 ovarian, 2.46 µM; in the assay with NCI/ADR-RES ovarian, 7.79 µM. Besides, the TGI in the assay on TK-10 renal amounted to 3.5 µM; in the assay with SNB-75 CNS, 15.1 µM; with SF-268 CNS, 15.2 µM; in the assay on UACC-62 melanoma, 4.21 µM; with CAKI-1 renal, 5.92 µM; in the assay on SK-OV-3 ovarian, 14.1 µM. Moreover, the TGI with NCI-H23 lung was 28.7 µM; in the assay on SK-MEL-5 melanoma, 3.56 µM; in the assay on OVCAR-8 ovarian, above 29.3 µM; in the assay on NCI/ADR-RES ovarian it was above 47.8 µM.

For the origin of these results see PubChem BioAssay (NCI).
